Literature values as cited in US20080233144A1, “Use of the Mushroom Agaricus Blazei Murill for the Production of Medicaments Suitable for Treating Infections and Allergies” (priority 2004, published 2008).

Tested on: Streptococcus pneumoniae serotype 6B
Settings: previous experiments

Substance: β-glucan
- effect in the pneumococcus infection model when given via gavage: did not have any effect
